In patent US20250270224A1, “POLYCYCLIC POLY(ADP-RIBOSE) POLYMERASE SELECTIVE INHIBITOR” (XUANZHU BIOPHARMACEUTICAL CO., LTD., priority 2022, published 2025):

Experiments:
MDA-MB-436 cells = experiment: In-vitro cytological inhibitory activity (CelltiterGlo assay), 7 days culture; format: cell-based; conditions: BRCA1 mutated human breast cancer cells, CTG
Procedure: The MDA-MB-436 cells were adherent cells, and the culture solution was DMEM+10% FBS+1% ITS-G+16 μg/ml glutathione.
Cells in the logarithmic growth phase were collected and counted by a […]. The cell viability was detected by a trypan blue exclusion method, and the cell viability was kept over 90%. The cell concentration was adjusted to be in a proper range, and 90 μL of cell suspension was added into a 96-well plate respectively.
The stock solutions of the test compounds were diluted by 10 times from 10 mM to 1 mM with DMSO, and then continuously gradiently diluted by 3 times with DMSO into a total of 9 concentrations.
10 μL of compound working stock solution was added into each well in a 96-well plate inoculated with cells (diluted by 10 times, the final concentration of DMSO was 0.1%).
Solvent control: 0.1% DMSO (2 μL of DMSO was diluted with 198 μL of culture solution, and then 10 μL of the diluted solution was added into the well plate).
Blank control: the 96-well plate was detected and read 0 hour after the addition.
2.5 the 96-Well Plate was Placed in a 5% CO2 Cell Incubator at 37° C. To Culture for 7 Days
A CTG reagent was thawed and the 96-well plate was equilibrated to room temperature for 30 minutes, 60 μL of reagent (Celltiter Glo assay kit) was added into each well and shaken by a shaker for 2 minutes to mix uniformly (in the dark), and the mixture was incubated at room temperature for 20 minutes (in the dark). Light signal values were read by a multi-functional microplate reader.

PARP2 = PARP2 (Homo sapiens (Human), UniProt Q9UGN5); experiment: In-vitro enzymatic activity, PARP2 (histone-coated plate, chemiluminescence detection); format: biochemical; conditions: class symbols
Sequence of PARP2 (Q9UGN5 whole entry): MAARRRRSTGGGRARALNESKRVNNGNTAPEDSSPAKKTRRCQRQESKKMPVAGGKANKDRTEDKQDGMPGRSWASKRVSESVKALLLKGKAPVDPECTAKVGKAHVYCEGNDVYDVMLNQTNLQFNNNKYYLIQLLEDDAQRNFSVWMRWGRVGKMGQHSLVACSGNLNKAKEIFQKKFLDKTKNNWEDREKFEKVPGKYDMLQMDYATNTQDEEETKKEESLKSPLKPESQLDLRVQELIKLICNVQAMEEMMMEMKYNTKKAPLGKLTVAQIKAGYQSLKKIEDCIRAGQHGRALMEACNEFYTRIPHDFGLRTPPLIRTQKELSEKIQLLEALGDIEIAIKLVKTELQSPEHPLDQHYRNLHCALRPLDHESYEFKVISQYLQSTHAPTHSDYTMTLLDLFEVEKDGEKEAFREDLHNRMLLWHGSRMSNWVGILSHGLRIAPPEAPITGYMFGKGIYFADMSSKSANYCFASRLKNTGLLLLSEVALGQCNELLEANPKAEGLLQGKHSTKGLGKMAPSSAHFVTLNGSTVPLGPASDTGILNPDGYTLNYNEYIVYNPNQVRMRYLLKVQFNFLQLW

PARP1 = PARP1 (Homo sapiens (Human), UniProt P09874); experiment: In-vitro enzymatic activity, PARP1 (histone-coated plate, chemiluminescence detection); format: biochemical; conditions: class symbols
Sequence of PARP1 (P09874 whole entry): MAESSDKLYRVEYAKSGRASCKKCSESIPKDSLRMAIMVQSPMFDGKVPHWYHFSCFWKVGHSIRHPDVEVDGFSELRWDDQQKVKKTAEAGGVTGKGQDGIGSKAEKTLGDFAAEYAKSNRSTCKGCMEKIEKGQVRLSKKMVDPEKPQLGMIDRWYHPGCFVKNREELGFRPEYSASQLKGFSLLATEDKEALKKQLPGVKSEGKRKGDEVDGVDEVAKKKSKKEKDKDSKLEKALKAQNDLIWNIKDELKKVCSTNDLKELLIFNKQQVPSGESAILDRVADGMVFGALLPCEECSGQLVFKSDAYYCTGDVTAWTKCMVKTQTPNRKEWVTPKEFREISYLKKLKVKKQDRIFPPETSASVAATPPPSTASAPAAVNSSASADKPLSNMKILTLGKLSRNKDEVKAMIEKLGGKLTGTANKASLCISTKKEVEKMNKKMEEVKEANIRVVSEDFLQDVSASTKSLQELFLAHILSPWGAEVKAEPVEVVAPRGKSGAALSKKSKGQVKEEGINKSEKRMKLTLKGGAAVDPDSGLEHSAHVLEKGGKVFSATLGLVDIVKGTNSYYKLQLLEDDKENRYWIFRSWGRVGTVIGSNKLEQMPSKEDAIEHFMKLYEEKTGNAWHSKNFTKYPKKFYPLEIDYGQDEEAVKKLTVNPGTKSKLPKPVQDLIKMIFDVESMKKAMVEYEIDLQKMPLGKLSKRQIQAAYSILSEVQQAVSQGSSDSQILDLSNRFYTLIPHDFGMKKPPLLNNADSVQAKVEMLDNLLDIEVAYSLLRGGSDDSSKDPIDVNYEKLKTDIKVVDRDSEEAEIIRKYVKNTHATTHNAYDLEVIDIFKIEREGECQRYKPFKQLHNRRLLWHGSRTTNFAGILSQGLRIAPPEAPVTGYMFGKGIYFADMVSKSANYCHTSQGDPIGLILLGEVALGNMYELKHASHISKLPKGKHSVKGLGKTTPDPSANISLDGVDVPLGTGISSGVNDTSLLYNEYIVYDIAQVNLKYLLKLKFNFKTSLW

| Molecule | IC50 (MDA-MB-436 cells; MDA-MB-436, 168 h) | IC50 (MDA-MB-436 cells) | IC50 (PARP2) | IC50 (PARP1) |
| --- | --- | --- | --- | --- |
| CNC(=O)c1ccc(N2CCN(Cc3cc4c5c(cnn5CC(=O)N4)c3)CC2)c(F)n1 [Compound 8, 6-fluoro-N-methyl-5-(4-((2-oxo-2,3-dihydro-1H-pyrazolo[1,5,4-de]quinoxaline-8-yl)methyl)piperazine-1-yl)picolinamide] | 129 nM | – | – | – |
| CNC(=O)c1ccc(N2CCN(Cc3cc4c5c(ccn5CC(=O)N4)c3)CC2)c(F)n1 [Compound 11, 6-fluoro-N-methyl-5-(4-((2-oxo-2,3-dihydro-1H-pyrrolo[1,2,3-de]quinoxaline-8-yl)methyl)piperazine-1-yl)picolinamide] | 21.5 nM | – | – | – |
| CNC(=O)c1ccc(N2CCN(Cc3cc4c5c(c(C)c(=O)[nH]c5c3F)CC4)CC2)c(F)n1 [Compound 6, 6-fluoro-5-(4-((8-fluoro-3-methyl-2-oxo-1,2,4,5-tetrahydrocyclopentyl[de]quinoline-7-yl)methyl)piperazine-1-yl)-N-methylpicolinamide] | – | 2 nM | – | – |
| CNC(=O)c1ccc(N2CCN(Cc3cc4c5c(c(C)c(=O)[nH]c5c3)CC4)CC2)c(F)n1 [Compound 31, 6-fluoro-N-methyl-5-(4-((3-methyl-2-oxo-1,2,4,5-tetrahydrocyclopentane[de]quinoline-7-yl)methyl)piperazine-1-yl)pyridine carboxamide] | – | 2.2 nM | 10 to 100 nM | < 1 nM |
| CNC(=O)c1ccc(N2CCN(Cc3cc4c5c(c(C)c(=O)[nH]c5c3)CCC4)CC2)c(F)n1 [Compound 25, 6-fluoro-N-methyl-5-(4-((3-methyl-2-oxo-2,4,5,6-tetrahydro-1H-benzo[de]quinoline-8-yl)methyl)piperazine-1-yl)picolinamide] | 15.8 nM | – | 10 to 100 nM | < 1 nM |
| CNC(=O)c1ccc(N2CCN(Cc3cc4cc(C)n5c4c(c3F)NC(=O)C5C)CC2)c(F)n1 (centres unmarked) [Compound 34, 6-fluoro-5-(4-((9-fluoro-3,5-dimethyl-2-oxo-2,3-dihydro-1H-pyrrolo[1,2,3-de]quinoxaline-8-yl)methyl)piperazine-1-yl)-N-methylpyridine formamide] | 13.6 nM | – | 100 to 1000 nM | 1 to 3 nM |
| CNC(=O)c1ccc(N2CCN(Cc3cc4ccn5c4c(c3F)NC(=O)[C@H]5C)CC2)c(F)n1 [Compound 36, (R)-6-fluoro-5-(4-((9-fluoro-3-methyl-2-oxo-2,3-dihydro-1H-pyrrolo[1,2,3-de]quinoxaline-8-yl)methyl)piperazine-1-yl)-N-methylpyridine formamide] | 11.1 nM | – | – | – |
| CNC(=O)c1ccc(N2CCN(Cc3cc4c5c(c3)c(F)nn5[C@H](C)C(=O)N4)CC2)c(F)n1 [Compound 49-2, (R)-6-fluoro-5-(4-((6-fluoro-3-methyl-2-oxo-2,3-dihydro-1H-pyrazolo[1,5,4-de]quinoxaline-8-yl)methyl)piperazine-1-yl)-N-methylpicolinamide] | 2.9 nM | – | 100 to 1000 nM | < 1 nM |
| 5-(4-((6,9-difluoro-3-methyl-2-oxo-2,3-dihydro-1H-pyrrolo[1,2,3-de]quinoxaline-8-yl)methyl)piperazine-1-yl)-6-fluoro-N-methylpyridine Formamide [Compound 38] | – | 15.2 nM | 100 to 1000 nM | 1 to 3 nM |
| (S)-6-fluoro-5-(4-((9-fluoro-3-methyl-2-oxo-2,3-dihydro-1H-pyrrolo[1,2,3-de]quinoxaline-8-yl) methyl)piperazine-1-yl)-N-methylpyridine formamide [Compound 35] | – | 46.5 nM | – | – |
| CNC(=O)c1ccc(N2CCN(Cc3cc4c5c(ccn5C(C)(C)C(=O)N4)c3)CC2)c(F)n1 [Compound 46, 5-(4-((3,3-dimethyl-2-oxo-2,3-dihydro-1H-pyrrolo[1,2,3-de]quinoxaline-8-yl)methyl)piperazine-1-yl)-6-fluoro-N-methylpicolinamide] | 9.2 nM | – | 100 to 1000 nM | 3 to 10 nM |
| CNC(=O)c1ccc(N2CCN(Cc3cc4c5c(c3)c(F)nn5[C@@H](C)C(=O)N4)CC2)c(F)n1 [Compound 49-1, (S)-6-fluoro-5-(4-((6-fluoro-3-methyl-2-oxo-2,3-dihydro-1H-pyrazolo[1,5,4-de]quinoxaline-8-yl)methyl)piperazine-1-yl)-N-methylpicolinamide] | 3.6 nM | – | 100 to 1000 nM | 1 to 3 nM |
